# Test: Area under the curve determinations of plasma levels in rats (rrAUC)
# Format: in vivo
# Settings: rapid rat AUC of the drug (parent) in plasma; oral 10 mg/kg, fasted rats, blood 0.5-6 h post-dosing
# Protocol: To gain insight into the pharmacokinetic properties of the compounds of formula (I), plasma levels of the compounds in rats were determined according to the protocol described in Korfmacher, W. A,; Cox, K. A.; Ng, K. J.; Veals, J.; Hsieh, Y.; Wainhaus, S.; Broske, L; Prelusky, D.; Nomeir, A.; White, R. E. Rapid Commun. Mass Spectrorn, 2001, 15, 335. Briefly, rats, after an overnight fast, were dosed orally with the test compound at a dose of 10 mg/kg in a 5 mL/kg dose volume. Blood was collected at 0.5, 1, 2, 3, 4, and 6 h post-dosing. Mass spectrometry using high performance liquid chromatography was used to identify and measure the concentrations of the test compounds in the plasma at the various time points. The parent ion of each test compound was used to identify and quantitate the compounds in plasma.
row,Compound,PK (rrAUC) parent [µM·h]
1,COc1ccc2c(c1)C(=O)N(C[C@@]1(c3cc4nc(N5C[C@@H](O)CC5=O)ccc4o3)NC(=O)N(COC(=O)C(C)(C)C)C1=O)C2 [Compound 23],60.895
2,COc1ccc2c(c1)C(=O)N(C[C@@]1(c3cc4ncccc4o3)NC(=O)N(C)C1=O)C2 [Compound 45],0.947
3,COCCOCCOCCN1C(=O)N[C@@](CN2Cc3ccc(OC)cc3C2=O)(c2cc3ncccc3o2)C1=O [Compound 47],0.019
4,COc1ccc2c(c1)C(=O)N(C[C@@]1(c3cc4cnccc4o3)NC(=O)N(Cc3cccnc3)C1=O)C2 [Compound 48.1],0
5,COCCOCCOCCN1C(=O)N[C@@](CN2Cc3ccc(OC)cc3C2=O)(c2cc3cnccc3o2)C1=O [Compound 49],0.088
6,COc1ccc2c(c1)C(=O)N(C[C@@]1(c3cc4cnccc4o3)NC(=O)N(CCN3CCOCC3)C1=O)C2 [Compound 50],0
7,COCN1C(=O)N[C@@](CN2Cc3ccc(OC)cc3C2=O)(c2cc3cnccc3o2)C1=O [Compound 52],1.072
8,CCCCCCCCOCN1C(=O)N[C@@](CN2Cc3ccc(OC)cc3C2=O)(c2cc3cnccc3o2)C1=O [Compound 54],0.571
9,COc1ccc2c(c1F)C(=O)N(C[C@@]1(c3cc4cc5c(c(F)c4o3)C(=O)NC5)NC(=O)N(COCc3ccccc3)C1=O)C2 [Compound 57],2.244
10,COCN1C(=O)N[C@@](CN2Cc3ccc(OC)cc3C2=O)(c2cc3ncccc3o2)C1=O [Compound 58],2.125
11,CCOC(=O)N(C)CCOC(=O)OCN1C(=O)N[C@@](CN2Cc3ccc(OC)cc3C2=O)(c2cc3cnccc3o2)C1=O [Compound 63.5],0
12,COc1ccc2c(c1)C(=O)N(C[C@@]1(c3cc4cnccc4o3)NC(=O)N(COC(=O)OC(C)(C)C)C1=O)C2 [Compound 63],0
13,COc1ccc2c(c1)C(=O)N(C[C@@]1(c3cc4cnccc4o3)NC(=O)N(COC(=O)c3ccccc3)C1=O)C2 [Compound 66],1.861
14,COc1ccc2c(c1)C(=O)N(C[C@@]1(c3cc4cnccc4o3)NC(=O)N(COC(=O)N(C)C)C1=O)C2 [Compound 69],13.539
15,COc1ccc2c(c1F)C(=O)N(C[C@@]1(c3cc4cc5c(c(F)c4o3)C(=O)NC5)NC(=O)N(C3OC(=O)c4ccccc43)C1=O)C2 (stereo partly drawn) [Compound 75],0.189
16,COc1ccc2c(c1)C(=O)N(C[C@@]1(c3cc4cnccc4o3)NC(=O)N(C(=O)OC3COCOC3)C1=O)C2 [Compound 77],0

# Second part, the compound after the results:
row,PK (rrAUC) parent [µM·h],Compound
1,1.898,COc1ccc2c(c1F)C(=O)N(C[C@@]1(c3cc4cc5c(c(F)c4o3)C(=O)NC5)NC(=O)N(COC(=O)C(C)(C)C)C1=O)C2 [Compound 7]
2,2.193,COc1ccc2c(c1F)C(=O)N(C[C@@]1(c3cc4c5c(ccc4o3)CNC5=O)NC(=O)N(COC(=O)C(C)(C)C)C1=O)C2 [Compound 8]
3,0.335,COc1ccc2c(c1F)C(=O)N(C[C@@]1(c3cc4cc([C@@]5(C)NC(=O)NC5=O)c(F)cc4o3)NC(=O)N(COC(=O)C(C)(C)C)C1=O)C2 [Compound 30]
4,0.868,CCN1C(=O)N[C@@](CN2Cc3ccc(OC)cc3C2=O)(c2cc3ncccc3o2)C1=O [Compound 46]
5,5.183,CCOCN1C(=O)N[C@@](CN2Cc3ccc(OC)cc3C2=O)(c2cc3cnccc3o2)C1=O [Compound 53]
6,0,COCN1C(=O)N[C@@](CN2Cc3ccc(OC)c(F)c3C2=O)(c2cc3cc4c(c(F)c3o2)C(=O)NC4)C1=O [Compound 56]
7,0,CCOC(=O)CN1C(=O)N[C@@](CN2Cc3ccc(OC)cc3C2=O)(c2cc3cnccc3o2)C1=O [Compound 58.2]
8,0,COc1ccc2c(c1)C(=O)N(C[C@@]1(c3cc4cnccc4o3)NC(=O)N(C(C)OC(=O)OC3COCOC3)C1=O)C2 (stereo partly drawn) [Compound 60.1]
